Results as given in ChEMBL document CHEMBL1152742, “Morpholine-based RGD-cyclopentapeptides as alphavbeta3/alphavbeta5 integrin ligands: role of configuration towards receptor binding affinity” (Bioorg Med Chem, 2009).

Key:
[1] = molecular target: Integrin alpha-V/beta-3 (Homo sapiens, UniProt P05106+P06756)
Description: Displacement of [125I]echistatin from integrin alphaVbeta3 receptor in human placenta by microplate scintillation counter

[2] = molecular target: Integrin alpha-V/beta-5 (Homo sapiens); test: Displacement of [125I]echistatin from integrin alphaVbeta5 receptor in human placenta by microplate scintillation counter

Integrin alpha-V/beta-3, sequence (P05106 27-788 limits assumed): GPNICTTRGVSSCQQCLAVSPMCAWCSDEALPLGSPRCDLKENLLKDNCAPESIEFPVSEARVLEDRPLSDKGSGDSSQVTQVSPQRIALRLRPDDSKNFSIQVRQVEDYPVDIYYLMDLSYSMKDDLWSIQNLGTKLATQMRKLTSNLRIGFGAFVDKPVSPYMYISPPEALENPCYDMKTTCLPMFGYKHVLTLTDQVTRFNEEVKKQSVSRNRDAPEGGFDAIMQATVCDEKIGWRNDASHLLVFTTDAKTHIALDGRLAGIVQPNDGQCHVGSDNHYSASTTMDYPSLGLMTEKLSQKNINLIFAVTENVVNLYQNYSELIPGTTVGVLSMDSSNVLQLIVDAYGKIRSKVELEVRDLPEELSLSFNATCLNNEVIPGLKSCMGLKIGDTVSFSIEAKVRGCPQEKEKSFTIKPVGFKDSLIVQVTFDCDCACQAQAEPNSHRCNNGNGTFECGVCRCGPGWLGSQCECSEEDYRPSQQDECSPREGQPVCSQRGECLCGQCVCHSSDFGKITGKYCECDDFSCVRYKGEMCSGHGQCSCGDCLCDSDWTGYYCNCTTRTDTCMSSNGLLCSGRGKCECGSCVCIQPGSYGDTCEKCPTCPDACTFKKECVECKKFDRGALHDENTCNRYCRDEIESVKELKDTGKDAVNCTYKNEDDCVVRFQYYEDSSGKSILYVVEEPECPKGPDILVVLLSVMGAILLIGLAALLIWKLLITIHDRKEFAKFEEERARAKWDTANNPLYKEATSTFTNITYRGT
Integrin alpha-V/beta-3, sequence (P06756 31-889 partner limits assumed): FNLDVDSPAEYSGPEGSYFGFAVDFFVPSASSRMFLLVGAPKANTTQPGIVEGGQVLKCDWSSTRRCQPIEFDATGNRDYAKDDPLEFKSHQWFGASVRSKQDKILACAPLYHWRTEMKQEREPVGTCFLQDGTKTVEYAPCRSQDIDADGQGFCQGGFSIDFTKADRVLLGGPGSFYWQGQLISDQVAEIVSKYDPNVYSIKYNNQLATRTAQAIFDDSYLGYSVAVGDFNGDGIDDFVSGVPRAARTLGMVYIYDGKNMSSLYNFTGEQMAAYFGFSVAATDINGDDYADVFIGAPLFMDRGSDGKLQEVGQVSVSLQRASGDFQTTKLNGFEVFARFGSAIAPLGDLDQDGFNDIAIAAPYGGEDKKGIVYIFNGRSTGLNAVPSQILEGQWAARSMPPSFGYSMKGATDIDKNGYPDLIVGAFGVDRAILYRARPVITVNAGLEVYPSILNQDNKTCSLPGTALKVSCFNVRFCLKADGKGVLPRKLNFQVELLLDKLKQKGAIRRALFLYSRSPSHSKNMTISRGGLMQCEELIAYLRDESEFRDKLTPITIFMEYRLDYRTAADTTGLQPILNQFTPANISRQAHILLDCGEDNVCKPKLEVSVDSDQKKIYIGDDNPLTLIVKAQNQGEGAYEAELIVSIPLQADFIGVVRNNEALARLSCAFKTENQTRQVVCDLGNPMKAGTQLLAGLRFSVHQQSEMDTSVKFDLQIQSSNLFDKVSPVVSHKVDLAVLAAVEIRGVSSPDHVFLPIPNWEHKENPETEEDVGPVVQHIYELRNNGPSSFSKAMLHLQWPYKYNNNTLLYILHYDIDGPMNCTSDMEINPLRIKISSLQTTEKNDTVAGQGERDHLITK
Integrin alpha-V/beta-3, sequence (P06756 891-1048 partner limits assumed): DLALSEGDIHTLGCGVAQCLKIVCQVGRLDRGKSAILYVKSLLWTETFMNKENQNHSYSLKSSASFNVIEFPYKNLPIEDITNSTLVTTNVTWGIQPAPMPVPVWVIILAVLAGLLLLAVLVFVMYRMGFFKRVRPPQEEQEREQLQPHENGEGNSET

Molecule `NC(N)=NCCC[C@@H]1NC(=O)CNC(=O)[C@H](CC(=O)O)N[C@@H]2CCC[C@@H]3CC[C@@H](C1=O)N3C2=O` has an IC50 [1] of 5.64 nM and an IC50 [2] of 0.9 nM.
